From patent US9879050B2, “Substituted urea depsipeptide analogs as activators of the CLPP endopeptidase” (priority 2013, dated 2018)
≈ marks a conversion by molar mass, not a printed value. Where two headings read alike, the source gives them in different places.

Key:
[1] = target: T1, Sa-ClpP (Staphylococcus aureus, UniProt Q2G036); experiment: ClpP activation, EnzCheck Protease Assay with Bodipy-FL casein (second described method); format: biochemical, S. aureus
T1 construct: made in house; host or cells: E. coli BL21 (DE3)
T1 sequence (Q2G036 whole entry): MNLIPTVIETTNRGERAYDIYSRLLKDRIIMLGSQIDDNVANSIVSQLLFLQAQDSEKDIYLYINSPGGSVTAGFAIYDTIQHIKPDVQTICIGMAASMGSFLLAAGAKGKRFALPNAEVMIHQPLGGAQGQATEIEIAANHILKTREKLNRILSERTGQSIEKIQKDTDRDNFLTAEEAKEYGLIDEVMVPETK
Experimental: Alternatively, the assay was carried out using EnzCheck Protease Assay (Molecular Probes, Catalog #E6638). The assay was performed in black 384 well, flat bottom, low volume plates (Greiner Bio-One, Monroe, N.C., catalog #784076). 10 μL of Tris.HCl buffer, pH 8.0 with 0.01% Triton X-100 was pipetted into each well using a Well-Mate (Thermo Scientific, Waltham, Mass.). 0.4 μL test compounds or controls (2% DMSO v/v) were added to each well using a Biomek FX liquid handling robot (Beckman Coulter, Indianapolis Ind.). After addition of test compounds and controls, 10 μL of master mix containing 2 μM Sa-ClpP and 2 μM substrate (Bodipy-FL labeled casein) in Tris*HCl buffer, pH 8.0 with 0.01% (v/v) Triton X-100, was pipetted into each well. All assays were performed in triplicate, under linear velocity conditions. Increase in fluorescent signal following activation of Sa-ClpP by test compounds and controls was measured over time period of 30 mins using filters with excitation at 485±15 nm and emission at 520±25 nm on a PHERAstar FS Multilabel reader (BMG, Cary, N.C.). […] Data analysis was done by measuring rate of casein degradation over time (slopes). Computed degradation rates (slopes) were normalized to positive (ADEP4) or negative (DMSO) controls. Using nonlinear regression curve fitting EC50 values and % activation were determined using the equation “log [agonist]vs. Response-variable slope (four parameters)-symmetrical” in the program Prism 6 (GraphPad Software, La Jolla, Calif. USA, www.graphpad.com).

[2] = system: S. pyogenes ATCC 700294; experiment: Minimal inhibitory concentration, microbroth dilution; format: cell-based; conditions: Streptococcus pyogenes, ATCC700294, read-out: Minimal Inhibitory Concentration S. pyogenes ATCC 700294
Experimental: (§1) Minimal inhibitory concentrations (“MICs”) were determined using the microbroth dilution method according to Clinical Laboratory Standards Institute (CLSI; National, C.F. C. L. S., Methods for Dilution Antimicrobial Susceptibility Tests for Bacteria Grow aerobically-Seventh Edition: Approved Standard M7-A7, CLSI, Wayne, Pa., USA, 2008) and were read by visual inspection. Two fold serial dilutions of test compound in 100 μL of the appropriate broth media were first prepared in 96-well round bottom microtiter plates (Nalgene Nunc International, Rochester, N.Y., USA). […] The plates were then incubated aerobically at 37° C. All strains were incubated overnight. After incubations, in all cases the MIC was recorded as the lowest concentration of drug that prevented bacterial growth. The bacterial strains for which MIC was determined as described in Table 4.

[3] = system: S. pneumoniae R6; experiment: as above; format: cell-based
Experimental: as §1

[4] = system: B. subtilis ATCC 23857; experiment: as above; format: cell-based; conditions: Bacillus subtilis, ATCC23857, read-out: Minimal Inhibitory Concentration B. subtilis ATCC 23857
Experimental: (§2) Minimal inhibitory concentrations (“MICs”) were determined using the microbroth dilution method according to Clinical Laboratory Standards Institute (CLSI; National, C.F. C. L. S., Methods for Dilution Antimicrobial Susceptibility Tests for Bacteria Grow aerobically-Seventh Edition: Approved Standard M7-A7, CLSI, Wayne, Pa., USA, 2008) and were read by visual inspection. Two fold serial dilutions of test compound in 100 μL of the appropriate broth media were first prepared in 96-well round bottom microtiter plates (Nalgene Nunc International, Rochester, N.Y., USA). An equivalent volume (100 μL) of bacterial broth inocula containing approximately 10^5 bacterial cfu/mL was added to each well to give final concentrations of test compound starting at 200 μM. The plates were then incubated aerobically at 37° C. All strains were incubated overnight. After incubations, in all cases the MIC was recorded as the lowest concentration of drug that prevented bacterial growth. The bacterial strains for which MIC was determined as described in Table 4.

[5] = system: S. aureus ATCC 29213; experiment: as above; format: cell-based; conditions: Staphylococcus aureus, ATCC29213, read-out: Minimal Inhibitory Concentration S. aureus ATCC 29213
Experimental: as §2

[6] = target: T1, Sa-ClpP; experiment: ADEP displacement fluorescence polarization assay; format: binding, S. aureus
Experimental: A fluorescence polarization (FP) assay was used to determine the activity of the disclosed compounds in displacing an ADEP analogue from ClpP. Briefly, the assay was performed in black 384 well, flat bottom, low volume plates (Greiner Bio-One, Monroe, N.C., catalog #784076). 20 μL of a pre-equilibrated (1 hr, room temperature) master mix (1 μM Sa-ClpP, 2% DMSO (v/v) and 50 nM FP probe in Tris*HCl, pH 8.0)) was pipetted into each well using a Well-Mate (Thermo Scientific, Waltham, Mass.). Sa-ClpP was prepared as described above for the ClpP activation assay. The FP probe was ADEP 2591 (structure shown above). The ADEP 2591 comprises a TAMRA fluorophore linked to a core based on modified ADEP 2378 via a short alkyl linker. Using pin transfer, approximately 0.4 μL (2% v/v DMSO) of each compound or control was added per well. After addition of compounds and controls, plates were allowed to incubate for an additional 120 minutes at room temperature. All assays were performed in triplicate. Polarization was monitored using an EnVision Multilabel reader (Perkin-Elmer, Waltham, Mass.) by exciting the FP probe at 530±25 nm, and monitoring fluorescence intensity of both parallel and perpendicular polarized light at 579±25 nm. Readout was in millipolarization units (mP).
Signal gain and G factors were determined in wells containing 20 μM ADEP 2378, which had been previously verified (data not shown) as containing completely unbound ADEP 2591. Data collected was normalized to values obtained from positive (20 μM ADEP 2378) or negative (DMSO) controls. Curves were fit with non-linear regression using the equation “log [inhibitor]vs. Response-variable slope (four parameters)-symmetrical” in the program Prism 6 (GraphPad Software, La Jolla, Calif. USA, www.graphpad.com). The structures for ADEP 2378 and ADEP 2591 are shown above. ADEP 2378 is (E)-N-((S)-1-(((2R,6S,8aS,14aS,20S,23aS)-2,6-dimethyl-5,8,14,19,23-pentaoxooctadecahydro-1H,5H,14H,19H-pyrido[2,1-i]dipyrrolo[2,1-c:2′,1′-1][1]oxa[4,7,10,13]tetraazacyclohexadecin-20-yl)amino)-1-oxo-3-phenylpropan-2-yl)pent-2-enamide. ADEP 2591 is 5-(3-(3-((6S,9S,11aS,17S,20aS)-6,10-dimethyl-5,8,11,16,20-pentaoxo-17-((S)-2-((E)-pent-2-enamido)-3-phenylpropanamido)hexadecahydro-1H,5H,16H-dipyrrolo[2,1-c:2′,1′-1][1]oxa[4,7,10,13]tetraazacyclohexadecin-9-yl)propyl)thioureido)-2-(6-(dimethylamino)-3-(dimethyliminio)-3H-xanthen-9-yl)benzoate.

[7] = system: S. aureus USA 300 ΔClpP; experiment: Minimal inhibitory concentration, microbroth dilution; format: cell-based, Staphylococcus aureus; conditions: ClpP inactivated strain
Experimental: as §2

[8] = Cytotoxicity assay, CellTiter-Glo cell viability; format: cell-based; conditions: African green monkey
Experimental: Cytotoxicity was determined by determining the effect of compounds on cell viability. Vero (kidney epithelial cells; ATCC CCL-81) monolayers were trypsinized and 5000 cells/well were seeded (10-15% confluency) into white-wall, flat bottom 96 well microwell plates (Corning) using enriched Dulbecco's Modified Eagle's Medium (Hyclone: DMEM/High Glucose) containing 10% Fetal Bovine Serum (ATCC-30-2020). Plates were incubated overnight at 37° C. in the presence of 5% CO2. Drug-free media was then replaced with media containing serial dilutions of test compound or DMSO carrier. After an additional 72 hours of incubation, viability was indirectly measured using the CellTiter-Glo® Luminescent Cell Viability (Promega) assay. Assay plates were read at peak emission wavelength of 560 nm using a EnVision® Multilabel Plate Reader (Perkin Elmer) or PHERAstar FS Multilabel reader (BMG, Cary, N.C.). […] USA, www.graphpad.com]. For each experiment, compounds were tested in duplicate. IC50 values presented are the range of two biologically independent experiments.

[9] = read-out: ClpP Activation EC50 (converted)
[10] = Streptococcus pneumoniae, R6, read-out: Minimal Inhibitory Concentration S. pneumoniae R6
[11] = 1 μM Sa-ClpP, 50 nM FP probe ADEP 2591, read-out: ADEP Displacement IC50
[12] = Streptococcus pneumoniae, R6; read-out: Minimal Inhibitory Concentration S. pneumoniae R6
[13] = Vero kidney epithelial cells (ATCC CCL-81), Vero cells, 72 hours, read-out: Cytotoxicity IC50

Row | SMILES | EC50 [1, 9] | MIC [2] | MIC [3, 10] | MIC [4] | MIC [5] | IC50 [6, 11] | Minimal Inhibitory Concentration S. aureus USA 300 ΔClpP [7] | IC50 at 72 h ([8]; Vero cells, 72 hours, read-out: Cytotoxicity IC50) | EC50 [1] | MIC [3, 12] | IC50 at 72 h [8, 13] | IC50 [6] | IC50 at 72 h [8]
1 | Cc1ccc(NC(=O)N[C@@H](Cc2cc(F)cc(F)c2)C(=O)N[C@@H]2C(=O)N3CCCC3C(=O)N3CCOCC3C(=O)N[C@@H](C)C(=O)N3C[C@H](C)CC3C(=O)O[C@H]2C)cc1 (stereo partly drawn) [Compound 47, (S)-3-(3,5-Difluorophenyl)-2-(3-(P-Tolyl)Ureido)-N-((6aS,12S,13S,15aS,17R,21S,23aS)-13,17,21-Trimethyl-6,11,15,20,23-Pentaoxooctadecahydro-6H,11H,15H-[1,4]Oxazino[3,4-I]Dipyrrolo[2,1-C:2′,1′-L][1]Oxa[4,7,10,13]Tetraazacyclohexadecin-12-Yl)Propanamide] | 0.4 ± 0.01 µM | 0.02 µM (≈ 0.0162 µg/mL) | 0.002 µM (≈ 0.00162 µg/mL) | 0.8 µM (≈ 0.648 µg/mL) | 0.003 µM (≈ 0.00243 µg/mL) | 7.01 ± 0.3 µM | >200 µM | – | – | – | – | – | –
2 | Cc1ccc(NC(=O)N[C@@H](Cc2cc(F)cc(F)c2)C(=O)N[C@H]2COC(=O)C3C[C@H](C)CN3C(=O)[C@H](C)NC(=O)C3CCCCN3C(=O)C3CCCN3C2=O)cc1 (stereo partly drawn) [Compound 45, (S)-3-(3,5-Difluorophenyl)-N-((2S,6S,8aS,14aS,20S,23aS)-2,6-Dimethyl-5,8,14,19,23-Pentaoxooctadecahydro-1H,5H,14H,19H-Pyrido[2,1-I]Dipyrrolo[2,1-C:2′,1′-L][1]Oxa[4,7,10,13]Tetraazacyclohexadecin-20-Yl)-2-(3-(P-Tolyl)Ureido)Propanamide] | 0.54 ± 0.03 µM | 0.4 µM (≈ 0.318 µg/mL) | 0.1 µM (≈ 0.0794 µg/mL) | – | 0.4 µM (≈ 0.318 µg/mL) | 6.62 ± 0.2 µM | 100 µM | 56.8 ± 6.7 µM | – | – | – | – | –
3 | C[C@H]1CC2C(=O)OC[C@H](NC(=O)[C@H](Cc3ccccc3)NC(=O)Nc3ccc(OC(F)(F)F)cc3)C(=O)N3CCCC3C(=O)N3CCCCC3C(=O)N[C@@H](C)C(=O)N2C1 (stereo partly drawn) [Compound 44, (S)—N-((2S,6S,8aS,14aS,20S,23aS)-2,6-Dimethyl-5,8,14,19,23-Pentaoxooctadecahydro-1H,5H,14H,19H-Pyrido[2,1-I]Dipyrrolo[2,1-C:2′,1′-L][1]Oxa[4,7,10,13]Tetraazacyclohexadecin-20-Yl)-3-Phenyl-2-(3-(4-(Trifluoromethoxy)Phenyl)Ureido)Propanamide] | – | – | – | – | – | – | 50 µM | – | 0.28 ± 0.01 µM | 0.1 µM (≈ 0.0828 µg/mL) | 83.8 ± 6.6 µM | 6.76 ± 0.3 µM | –
4 | C[C@@H]1NC(=O)[C@H](C)N(C)C(=O)C2CCCN2C(=O)[C@@H](NC(=O)[C@H](Cc2cc(F)cc(F)c2)NC(=O)Nc2ccc(OC(F)(F)F)cc2)[C@H](C)OC(=O)C2CCCN2C1=O (stereo partly drawn) [Compound 27, (2S)-3-(3,5-Difluorophenyl)-N-((6S,9S,11aS,17S,18S)-6,9,10,18-Tetramethyl-5,8,11,16,20-Pentaoxohexadecahydro-1H,5H,16H-Dipyrrolo[2,1-C:2′,1′-L][1]Oxa[4,7,10,13]Tetraazacyclohexadecin-17-Yl)-2-(3-(4-(Trifluoromethoxy)Phenyl)Ureido)Propanamide] | 0.31 ± 0.01 µM | – | – | – | – | 7.7 ± 0.2 µM | 100 µM | – | – | 0.058 µM (≈ 0.0486 µg/mL) | – | – | 10.5 ± 1.4 µM
5 | C[C@H]1CC2C(=O)OC[C@H](NC(=O)[C@H](Cc3cc(F)cc(F)c3)NC(=O)Nc3ccc4c(c3)OCO4)C(=O)N3CCCC3C(=O)N3CCCCC3C(=O)N[C@@H](C)C(=O)N2C1 (stereo partly drawn) [Compound 46, (S)-2-(3-(Benzo[D][1,3]Dioxol-5-Yl)Ureido)-3-(3,5-Difluorophenyl)-N-((2S,6S,8aS,14aS,20S,23aS)-2,6-Dimethyl-5,8,14,19,23-Pentaoxooctadecahydro-1H,5H,14H,19H-Pyrido[2,1-I]Dipyrrolo[2,1-C:2′,1′-L][1]Oxa[4,7,10,13]Tetraazacyclohexadecin-20-Yl)Propanamide] | – | – | – | – | – | – | 200 µM | – | 0.32 ± 0.02 µM | 0.4 µM (≈ 0.33 µg/mL) | 71.8 ± 5.4 µM | 4.61 ± 0.2 µM | –
